Source: patent US20050209157A1, “Short bioactive peptides and methods for their use” (priority 2001, published 2005)
In brackets after ≈: the same amount, converted by molar mass. No end group written: not given here.

Columns and labels:
[1] = in vitro; format: cell-based, human; settings: human, human red blood cells, pH 7, Table 26, valine substitution; read-out: Hemolysis RBC LD50
[2] = in vitro; settings: human, WI38 normal lung fibroblast cells, WI-38 LD50, Table 26, valine substitution
[3] = system: Escherichia coli ATCC 25922; assay: Antimicrobial assay I, modified protocol (tryptic soy broth), MBC; settings: minimum bactericidal concentration, Table 4
Description: (§1) The preparation of all media, stock solutions, and dilutions took place in a laminar flow hood to prevent contamination. Bacterial cells were freshly grown on antibiotic medium 2 agar slants (pH 7.0 at 25° C.). Bacteria were suspended and diluted in antibiotic medium 3 to about 10^4 cfu/ml and used as the inoculum. Sample solutions (100 μl/well) were added to plates according to the plate layout. Inoculum (100 μl/well) was added to achieve a final concentration of 5×10^3 cfu/ml. Negative controls received 100 μl saline and 100 μl growth medium. Positive controls received 100 μl saline and 100 μl inoculum. Bacterial plates were incubated at 37° C. for 24 hours.
(§2) However, the data for Table 4 were obtained with a modified protocol wherein the medium was tryptic soy broth, inocolum strength was approximately 10^4 CFU per ml, and values determined were minimum bactericidal concentrations (MBC) or minimum fungicidal concentrations (MFC).
(§3) MBC or MFC values are in μg/mL. E. coli is Escherichia coli ATCC accession number 25922; P. aerug is Pseudomonas aeruginosa ATCC accession number 27853, S. aur. is Stapholococcus aureus ATCC accession number 25923; Candida is Candida albicans ATCC accession number 10231.

[4] = system: Pseudomonas aeruginosa ATCC 27853; assay: as above; settings: minimum bactericidal concentration, Table 4
[5] = system: Stapholococcus aureus ATCC 25923; assay: as above; settings: minimum bactericidal concentration, Table 4
Description: as §1, §2, §3

[6] = system: Candida albicans ATCC 10231; assay: Antimicrobial assay I, modified protocol (tryptic soy broth), MFC; settings: minimum fungicidal concentration, Table 4

Compound | HC50 at 1 h [1] [µg/mL] | CC50 at 24 h [2] [µg/mL] | MBC E. coli A.25922 [3] | MBC P. aerug A.27853 [4] | MBC S. aur A.25923 [5] | MFC Candida A.10231 [6]
FALALKALKKLLKKLKKLAKKAL-NH2 [compound 24] | 10 | 55 | >80 µg/mL | 30 µg/mL | >40 µg/mL | >50 µg/mL
CC(C)C[C@H](NC(=O)[C@H](CC(C)C)NC(=O)[C@H](CCCCN)NC(=O)[C@H](CCCCN)NC(=O)[C@H](C)NC(=O)[C@H](CC(C)C)NC(=O)[C@H](CC(C)C)NC(=O)[C@H](CCCCN)NC(=O)[C@H](C)NC(=O)[C@@H](N)Cc1ccccc1)C(N)=O [compound 57] |  |  | >50 µg/mL | >50 µg/mL | >50 µg/mL | >50 µg/mL
VALALKALKKALKKLKKALKKAL-NH2 [compound 30] | 150 | 93 | 10 µg/mL | 15 µg/mL | 40 µg/mL | >50 µg/mL
CC(C)C[C@H](NC(=O)[C@H](C)NC(=O)[C@H](CC(C)C)NC(=O)[C@H](C)NC(=O)[C@H](CC(C)C)NC(=O)[C@H](CCCCN)NC(=O)[C@H](C)NC(=O)[C@H](CC(C)C)NC(=O)[C@H](CCCCN)NC(=O)[C@H](CCCCN)NC(=O)[C@H](C)NC(=O)[C@H](CC(C)C)NC(=O)[C@H](CCCCN)NC(=O)[C@H](CCCCN)NC(=O)[C@H](CC(C)C)NC(=O)[C@H](CCCCN)NC(=O)[C@H](CCCCN)NC(=O)[C@H](C)NC(=O)[C@H](CC(C)C)NC(=O)[C@H](CCCCN)NC(=O)[C@H](CCCCN)NC(=O)[C@H](C)NC(=O)[C@@H](N)Cc1ccccc1)C(N)=O [compound 11] |  |  | 40 µg/mL (≈ 15.8 µM) | 25 µg/mL (≈ 9.86 µM) | 25 µg/mL (≈ 9.86 µM) | >50 µg/mL
CC(C)C[C@H](NC(=O)[C@H](C)NC(=O)[C@H](CCCCN)NC(=O)[C@H](C)NC(=O)[C@H](CC(C)C)NC(=O)[C@H](CCCCN)NC(=O)[C@H](C)NC(=O)[C@H](CC(C)C)NC(=O)[C@H](CCCCN)NC(=O)[C@H](C)NC(=O)[C@H](CC(C)C)NC(=O)[C@H](CCCCN)NC(=O)[C@H](CCCCN)NC(=O)[C@H](C)NC(=O)[C@H](CC(C)C)NC(=O)[C@@H](N)CCCCN)C(N)=O [compound 159] |  |  | 10 µg/mL (≈ 5.86 µM) | 10 µg/mL (≈ 5.86 µM) | >250 µg/mL | 50 µg/mL (≈ 29.3 µM)
CC(C)C[C@H](NC(=O)[C@H](CCCCN)NC(=O)[C@H](CCCCN)NC(=O)[C@H](C)NC(=O)[C@H](CC(C)C)NC(=O)[C@H](CCCCN)NC(=O)[C@H](C)NC(=O)[C@H](CCCCN)NC(=O)[C@H](CCCCN)NC(=O)[C@H](C)NC(=O)[C@H](CC(C)C)NC(=O)[C@H](CCCCN)NC(=O)[C@H](CCCCN)NC(=O)[C@H](C)NC(=O)[C@@H](N)Cc1ccccc1)C(N)=O [compound 77] |  |  | >50 µg/mL | >50 µg/mL | >50 µg/mL | >50 µg/mL
CC(C)C[C@H](NC(=O)[C@H](C)NC(=O)[C@H](CC(C)C)NC(=O)[C@H](C)NC(=O)[C@H](CC(C)C)NC(=O)[C@H](CCCCN)NC(=O)[C@H](C)NC(=O)[C@H](CC(C)C)NC(=O)[C@H](CCCCN)NC(=O)[C@H](CCCCN)NC(=O)[C@H](CC(C)C)NC(=O)[C@H](CCCCN)NC(=O)[C@H](CCCCN)NC(=O)[C@H](C)NC(=O)[C@H](CC(C)C)NC(=O)[C@H](CCCCN)NC(=O)[C@H](CCCCN)NC(=O)[C@H](C)NC(=O)[C@@H](N)Cc1ccccc1)C(=O)O [27C] |  |  | 10 µg/mL (≈ 4.77 µM) | 4 µg/mL (≈ 1.91 µM) | >40 µg/mL | >40 µg/mL
CC(C)C[C@H](NC(=O)[C@H](C)NC(=O)[C@H](CCCCN)NC(=O)[C@H](CCCCN)NC(=O)[C@H](CC(C)C)NC(=O)[C@H](C)NC(=O)[C@H](CCCCN)NC(=O)[C@H](CC(C)C)NC(=O)[C@H](CC(C)C)NC(=O)[C@H](C)NC(=O)[C@@H](N)Cc1ccccc1)C(N)=O [compound 171] |  |  | 75 µg/mL (≈ 61.7 µM) | 100 µg/mL (≈ 82.3 µM) | >250 µg/mL | 50 µg/mL (≈ 41.2 µM)
FAKGVGKVGKKAL-NH2 [compound 137] |  |  | INACT | INACT | INACT | INACT
CC(C)C[C@H](NC(=O)[C@H](CCCCN)NC(=O)[C@H](CCCCN)NC(=O)[C@H](C)NC(=O)[C@H](CC(C)C)NC(=O)[C@H](CCCCN)NC(=O)[C@H](CCCCN)NC(=O)[C@H](CC(C)C)NC(=O)[C@H](CCCCN)NC(=O)[C@H](CCCCN)NC(=O)[C@H](C)NC(=O)[C@@H](N)Cc1ccccc1)C(N)=O [compound 79] |  |  | >50 µg/mL | >50 µg/mL | >50 µg/mL | >50 µg/mL
CC(C)C[C@H](NC(=O)[C@H](CCCCN)NC(=O)[C@H](C)NC(=O)[C@H](CC(C)C)NC(=O)[C@H](CC(C)C)NC(=O)[C@H](CCCCN)NC(=O)[C@H](C)NC(=O)[C@@H](N)Cc1ccccc1)C(=O)N[C@@H](C)C(=O)N[C@@H](CCCCN)C(=O)N[C@@H](CCCCN)C(N)=O [compound 151] |  |  | >250 µg/mL | >250 µg/mL | >250 µg/mL | 100 µg/mL (≈ 81.3 µM)
CC(C)C[C@H](NC(=O)[C@H](CCCCN)NC(=O)[C@H](C)NC(=O)[C@H](CC(C)C)NC(=O)[C@H](CC(C)C)NC(=O)[C@H](CCCCN)NC(=O)[C@H](C)NC(=O)[C@@H](N)Cc1ccccc1)C(=O)N[C@@H](C)C(=O)N[C@@H](CCCCN)C(=O)N[C@@H](C)C(=O)N[C@@H](CCCCN)C(=O)NCC(N)=O [compound 96] |  |  | >50 µg/mL | >50 µg/mL | >50 µg/mL | >50 µg/mL
CC(C)C[C@H](NC(=O)[C@H](C)NC(=O)[C@H](CCCCN)NC(=O)[C@H](CCCCN)NC(=O)[C@H](C)NC(=O)[C@H](CC(C)C)NC(=O)[C@H](CCCCN)NC(=O)[C@H](C)NC(=O)[C@H](CC(C)C)NC(=O)[C@H](CC(C)C)NC(=O)[C@H](CCCCN)NC(=O)[C@H](C)NC(=O)[C@@H](N)Cc1ccccc1)C(N)=O [compound 54] |  |  | 15 µg/mL (≈ 10.6 µM) | 40 µg/mL (≈ 28.3 µM) | 15 µg/mL (≈ 10.6 µM) | 30 µg/mL (≈ 21.2 µM)
FAKLFAKLAKKFAL-NH2 [compound 121] |  |  | INACT | INACT | INACT | 50 µg/mL
CC(C)C[C@H](NC(=O)[C@H](CCCCN)NC(=O)[C@H](CC(C)C)NC(=O)[C@H](CCCCN)NC(=O)[C@H](C)NC(=O)[C@H](CC(C)C)NC(=O)[C@H](CCCCN)NC(=O)[C@H](C)NC(=O)[C@H](CC(C)C)NC(=O)[C@H](CC(C)C)NC(=O)[C@H](CCCCN)NC(=O)[C@H](C)NC(=O)[C@@H](N)Cc1ccccc1)C(N)=O [compound 66] |  |  | 40 µg/mL (≈ 27.5 µM) | 50 µg/mL (≈ 34.3 µM) | 30 µg/mL (≈ 20.6 µM) | 40 µg/mL (≈ 27.5 µM)
FALKALKK-NH2 [compound 145] |  |  | INACT | INACT | INACT | 100 µg/mL
FAKIIAKIAKKI-NH2 [compound 143] |  |  | INACT | INACT | INACT | INACT
FAKLA-NH2 [compound 128] |  |  | INACT | INACT | INACT | INACT
CC(C)C[C@H](NC(=O)[C@H](CCCCN)NC(=O)[C@H](CCCCN)NC(=O)[C@H](Cc1c[nH]c2ccccc12)NC(=O)[C@@H](N)CCCCN)C(=O)N[C@@H](C)C(=O)N[C@@H](CCCCN)C(=O)N[C@@H](CCCCN)C(=O)N[C@@H](Cc1c[nH]c2ccccc12)C(=O)O [compound 162] |  |  | 50 µg/mL (≈ 41.1 µM) | >250 µg/mL | >250 µg/mL | 100 µg/mL (≈ 82.3 µM)
CC(C)C[C@H](NC(=O)[C@H](CCCCN)NC(=O)[C@H](CC(C)C)NC(=O)[C@H](Cc1c[nH]c2ccccc12)NC(=O)[C@H](CCCCN)NC(=O)[C@H](CCCCN)NC(=O)[C@H](C)NC(=O)[C@H](Cc1c[nH]c2ccccc12)NC(=O)[C@H](CCCCN)NC(=O)[C@H](CCCCN)NC(=O)[C@H](Cc1c[nH]c2ccccc12)NC(=O)[C@H](CC(C)C)NC(=O)[C@@H](N)CCCCN)C(=O)N[C@@H](Cc1c[nH]c2ccccc12)C(=O)N[C@@H](CCCCN)C(=O)N[C@@H](C)C(=O)N[C@@H](Cc1c[nH]c2ccccc12)C(N)=O [compound 163] |  |  | 25 µg/mL (≈ 10.7 µM) | 50 µg/mL (≈ 21.5 µM) | 25 µg/mL (≈ 10.7 µM) | 25 µg/mL (≈ 10.7 µM)
FAFGKGIGKIGKKGL-NH2 [compound 138] |  |  | INACT | INACT | INACT | INACT
CC(C)C[C@H](NC(=O)[C@H](CC(C)C)NC(=O)[C@H](CCCCN)NC(=O)[C@H](CC(C)C)NC(=O)[C@H](CC(C)C)NC(=O)[C@H](CCCCN)NC(=O)[C@H](CCCCN)NC(=O)[C@H](Cc1ccc(O)cc1)NC(=O)[C@H](CC(C)C)NC(=O)[C@H](CCCCN)NC(=O)[C@H](CC(C)C)NC(=O)[C@H](CC(C)C)NC(=O)[C@H](CC(C)C)NC(=O)[C@H](CCCCN)NC(=O)[C@H](CC(C)C)NC(=O)[C@H](CC(C)C)NC(=O)[C@@H](N)CCCCN)C(=O)O [compound 156] |  |  | 100 µg/mL (≈ 48 µM) | >250 µg/mL | >250 µg/mL | >250 µg/mL
